Source: ChEMBL document CHEMBL1136679, “Phenylacetic acid derivatives as hPPAR agonists” (Bioorg Med Chem Lett, 2003)
pEC50, pIC50: −log10 of the molar value.

How the values were obtained:
Rattus norvegicus [1] = species: Rattus norvegicus; type: functional, Plasma; details: at 10 mg/kg/day
Rattus norvegicus [2] = species: Rattus norvegicus; type: functional, Plasma; details: at 10 mg/kg/day; remark: listed apart in the source
Rattus norvegicus [3] = species: Rattus norvegicus; type: functional, Plasma; details: at 30 mg/kg/day
[4] = biological target: T1, Peroxisome proliferator-activated receptor alpha (Homo sapiens, UniProt Q07869); details: for pEC50: read-out: EC50
T1 sequence (Q07869 whole entry): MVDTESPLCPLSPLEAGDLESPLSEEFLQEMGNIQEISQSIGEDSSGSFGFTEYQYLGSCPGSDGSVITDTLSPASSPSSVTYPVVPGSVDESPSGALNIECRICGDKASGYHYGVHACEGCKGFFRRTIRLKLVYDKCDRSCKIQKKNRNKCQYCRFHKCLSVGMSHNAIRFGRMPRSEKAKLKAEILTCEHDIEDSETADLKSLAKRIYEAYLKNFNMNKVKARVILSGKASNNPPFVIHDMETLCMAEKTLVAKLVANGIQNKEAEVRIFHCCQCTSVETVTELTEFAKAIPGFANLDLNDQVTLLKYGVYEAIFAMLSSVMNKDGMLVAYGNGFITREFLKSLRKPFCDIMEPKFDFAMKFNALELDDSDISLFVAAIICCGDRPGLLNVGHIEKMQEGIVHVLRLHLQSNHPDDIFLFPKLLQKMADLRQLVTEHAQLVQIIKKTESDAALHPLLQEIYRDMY

Rattus norvegicus [5] = species: Rattus norvegicus; type: functional, Plasma; details: at 10 mg/kg/day; remark: listed apart in the source
Rattus norvegicus [6] = species: Rattus norvegicus; type: functional, Plasma; details: at 30 mg/kg/day; remark: listed apart in the source
Rattus norvegicus [7] = species: Rattus norvegicus; type: functional, Plasma; details: at 30 mg/kg/day; remark: listed apart in the source
Mus musculus [8] = species: Mus musculus; type: functional, Plasma; details: at 10 mg/kg/day
Mus musculus [9] = species: Mus musculus; type: functional, Plasma; details: at 10 mg/kg/day; remark: listed apart in the source
in vivo [10] = details: male, Sprague-Dawley, rat, po, 10 mg/kg
in vivo [11] = details: male, Sprague-Dawley, rat, iv
Rattus norvegicus [12] = species: Rattus norvegicus; type: functional, Plasma; details: at 100 mg/kg/day
Mus musculus [13] = species: Mus musculus; type: functional, Plasma; details: at 100 mg/kg/day
Mus musculus [14] = species: Mus musculus; type: functional, Plasma; details: at 100 mg/kg/day; remark: listed apart in the source
in vivo [15] = details: male, Sprague-Dawley, rat, iv; remark: listed apart in the source
[16] = biological target: T1, Peroxisome proliferator-activated receptor alpha
Rattus norvegicus [17] = species: Rattus norvegicus; type: functional, Plasma; details: at 100 mg/kg/day; remark: listed apart in the source
Rattus norvegicus [18] = species: Rattus norvegicus; type: functional, Plasma; details: at 100 mg/kg/day; remark: listed apart in the source
Mus musculus [19] = species: Mus musculus; details: Plasma
Mus musculus [20] = species: Mus musculus; type: functional, Plasma; details: at 30 mg/kg/day
Mus musculus [21] = species: Mus musculus; type: functional, Plasma; details: at 30 mg/kg/day; remark: listed apart in the source
[22] = biological target: T2, Peroxisome proliferator-activated receptor delta (Homo sapiens, UniProt Q03181)
T2 sequence (Q03181 whole entry): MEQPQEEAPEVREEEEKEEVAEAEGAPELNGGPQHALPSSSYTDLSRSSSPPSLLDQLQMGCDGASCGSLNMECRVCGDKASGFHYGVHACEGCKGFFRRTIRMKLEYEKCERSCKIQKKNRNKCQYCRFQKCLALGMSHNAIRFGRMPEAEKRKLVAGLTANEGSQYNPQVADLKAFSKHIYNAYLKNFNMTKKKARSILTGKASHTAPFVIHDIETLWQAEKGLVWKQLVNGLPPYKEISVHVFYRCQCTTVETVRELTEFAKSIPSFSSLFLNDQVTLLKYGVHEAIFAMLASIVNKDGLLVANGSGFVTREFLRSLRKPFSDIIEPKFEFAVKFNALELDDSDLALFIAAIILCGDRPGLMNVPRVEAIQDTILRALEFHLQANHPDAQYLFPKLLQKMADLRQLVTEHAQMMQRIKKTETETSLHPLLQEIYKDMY

[23] = biological target: T2, Peroxisome proliferator-activated receptor delta; remark: listed apart in the source
Rattus norvegicus [24] = species: Rattus norvegicus; type: functional, Plasma; details: at 30 mg/kg/day; remark: listed apart in the source
Rattus norvegicus [25] = species: Rattus norvegicus; type: functional, Plasma; details: at 30 mg/kg/day; remark: listed apart in the source
Mus musculus [26] = species: Mus musculus; type: functional, Plasma; details: at 30 mg/kg/day; remark: listed apart in the source
Mus musculus [27] = species: Mus musculus; type: functional, Plasma; details: at 3 mg/kg/day
Rattus norvegicus [28] = species: Rattus norvegicus; type: functional, Plasma; details: at 3 mg/kg/day
Rattus norvegicus [29] = species: Rattus norvegicus; details: in vivo, po, 10 mg/kg
Rattus norvegicus [30] = species: Rattus norvegicus; type: functional, Plasma; details: at 3 mg/kg/day; remark: listed apart in the source
Mus musculus [31] = species: Mus musculus; type: functional, Plasma; details: at 3 mg/kg/day; remark: listed apart in the source
Mus musculus [32] = species: Mus musculus; type: functional, Plasma; details: at 30 mg/kg/day; remark: listed apart in the source
Rattus norvegicus [33] = species: Rattus norvegicus; type: functional, Plasma; details: at 3 mg/kg/day; remark: listed apart in the source

Compound `CN(CCOc1ccc(CC2SC(=O)NC2=O)cc1)c1ccccn1` (stereo not given) [ROSIGLITAZONE] has a Dec (Rattus norvegicus [1]) of 78%, a Dec (Rattus norvegicus [2]) of 54% and a Corr (Rattus norvegicus [3]) of 109%. For the same compound, the EC50 [4] was “Not Active”, the Corr (Rattus norvegicus [5]) was 99% and the Dec (Rattus norvegicus [6]) was 94%. For the same compound, the Dec (Rattus norvegicus [7]) was 86%, the Dec (Mus musculus [8]) was 75% and the Corr (Mus musculus [9]) was 65%.

`CCCc1c(OCCCSc2ccc(CC(=O)O)cc2Cl)ccc2c(CC)noc12` [L-165461] showed a bioavailability (in vivo [10]) of 50%, a Corr (Rattus norvegicus [3]) of 29% and a clearance (in vivo [11]) of 17.6 mL/min/kg. For the same compound, the Dec (Rattus norvegicus [12]) was 70%, the Dec (Mus musculus [13]) was 67% and the Corr (Mus musculus [14]) was 33%. The half-life (in vivo [15]) was 1 h, the pEC50 [4] was 6.61 and the Dec (Rattus norvegicus [6]) was 42%. It also gave a pIC50 [16] of 6.24, a Dec (Rattus norvegicus [7]) of -14% and a Dec (Rattus norvegicus [17]) of 52%. For the same compound, the Corr (Rattus norvegicus [18]) was 66%.

In the case of `CCCc1c(OCCCSc2ccc(CC(=O)O)cc2Cl)ccc2c(-c3ccccc3)coc12` [L-796449], the Dec (Rattus norvegicus [1]) was 13%, the bioavailability (in vivo [10]) was 84% and the Dec (Rattus norvegicus [2]) was 67%. The Corr (Rattus norvegicus [3]) was 56%, the CL (mL.min-1.kg-1) (Mus musculus [19]) was 3.3 and the half-life (in vivo [15]) was 2.1 h. It also gave a pEC50 [4] of 7.74, a Corr (Rattus norvegicus [5]) of 27% and a Dec (Rattus norvegicus [6]) of 66%. For the same compound, the pIC50 [16] was 7.27, the Dec (Rattus norvegicus [7]) was 88% and the Corr (Mus musculus [20]) was 94%. The Dec (Mus musculus [8]) was 72%, the Corr (Mus musculus [9]) was 77% and the Dec (Mus musculus [21]) was 86%.

In the case of `CCCc1c(OCCCSc2ccc(CC(=O)O)cc2Cl)ccc(C(=O)CC)c1O`, the pEC50 [4] was 6.59, the pEC50 [22] was 8.00 and the pIC50 [23] was 7.70. The pIC50 [16] was 6.22.

For `CCCc1c(OCCCSc2ccc(CC(=O)O)cc2Cl)ccc(/C(CC)=N/O)c1O`, the bioavailability (in vivo [10]) was 33%, the Corr (Rattus norvegicus [3]) was 44% and the clearance (in vivo [11]) was 5.7 mL/min/kg. For the same compound, the Dec (Rattus norvegicus [12]) was 80%, the half-life (in vivo [15]) was 2.8 h and the pEC50 [4] was 7.13. For the same compound, the pEC50 [22] was 8.05, the Dec (Rattus norvegicus [6]) was 65% and the pIC50 [23] was 8.00. It also gave a pIC50 [16] of 7.00, a Dec (Rattus norvegicus [7]) of 15% and a Dec (Rattus norvegicus [17]) of 54%. For the same compound, the Corr (Rattus norvegicus [18]) was 89%.

For `CCCc1c(OCCCSc2ccc(CC(=O)O)cc2Cl)ccc2c(C(F)(F)F)noc12`, the Dec (Rattus norvegicus [1]) was -53%, the bioavailability (in vivo [10]) was 100% and the Dec (Rattus norvegicus [24]) was -65%. It also gave a Dec (Rattus norvegicus [2]) of 52%, a Dec (Rattus norvegicus [25]) of 74% and a Corr (Mus musculus [26]) of 96%. It also gave a Corr (Rattus norvegicus [3]) of 95%, a clearance (in vivo [11]) of 2.6 mL/min/kg and a Corr (Mus musculus [27]) of 30%. It also gave a Corr (Rattus norvegicus [28]) of 18%, a half-life (in vivo [15]) of 4.7 h and a pEC50 [4] of 6.90. The nAUC (Rattus norvegicus [29]) was 2520 ng·h/mL, the Dec (Rattus norvegicus [30]) was 45% and the pEC50 [22] was 8.30. For the same compound, the Corr (Rattus norvegicus [5]) was 83%, the Dec (Mus musculus [31]) was 46% and the pIC50 [23] was 8.00. For the same compound, the Dec (Mus musculus [32]) was 81%, the pIC50 [16] was 6.51 and the Dec (Mus musculus [8]) was 46%. The Corr (Mus musculus [9]) was 71% and the Dec (Rattus norvegicus [33]) was -34%.

Compound `CCCc1c(OCCCSc2ccc(CC(=O)O)cc2Cl)ccc(C(C)=O)c1O` has a pEC50 [4] of 5.80, a pEC50 [22] of 7.10 and a pIC50 [23] of 7.70. It also gave a pIC50 [16] of 5.13.

Work on `CCCc1c(OCCCSc2ccc(CC(=O)O)cc2Cl)ccc2c(CC)coc12` yielded a pEC50 [4] of 5.89, a pIC50 [16] of 5.76 and a Corr (Mus musculus [20]) of 74%. It also gave a Dec (Mus musculus [21]) of 60%.
